The source of these data is paper PMC5017001, “Induction of apoptosis and G2/M arrest by ampelopsin E from Dryobalanops towards triple negative breast cancer cells, MDA-MB-231” (BMC Complementary and Alternative Medicine, 2016).

Data set [1] concerns MDA-MB-231 cells. Description: MTT cytotoxicity assay, MDA-MB-231. It is filed as cell-based, human. As to conditions: for IC50: MTT. On the procedure:
The cytotoxic effects of the compounds were evaluated by the MTT [3-(4,5-dimethylthiazol-2-yl)-2,5-diphenyltetrazolium bromide] assay. […] Untreated controls were also included. Following incubation, 20 μL of 5 mg/mL MTT solution was added to each well and incubated at 37 °C for 3 h. Next, 100 μL of DMSO was added to dissolve the purple precipitate of formazan crystal. The absorbance at 570 nm and 630 nm as reference wavelength was measured by a microplate reader (BioTek EL 800, United States).
(§1) Cell growth inhibition (%) = [1 - (ODTreated/OD Control)] × 100.
(Tetrazolium dyes change colour on reduction, which living cells bring about.)

Data set [2] has as its system MCF-7 cells. Description: MTT cytotoxicity assay, MCF-7. Type of data set: cell-based, human. On the procedure:
(§2) The cytotoxic effects of the compounds were evaluated by the MTT [3-(4,5-dimethylthiazol-2-yl)-2,5-diphenyltetrazolium bromide] assay. The cells (50,000 cells/mL) were treated with various concentrations of the compounds (0.94–30 μM) in a 96-well plate for 72 h. Untreated controls were also included. Following incubation, 20 μL of 5 mg/mL MTT solution was added to each well and incubated at 37 °C for 3 h. Next, 100 μL of DMSO was added to dissolve the purple precipitate of formazan crystal. The absorbance at 570 nm and 630 nm as reference wavelength was measured by a microplate reader (BioTek EL 800, United States).
as §1

Data set [3] relates to HT-29 cells. Nature of the data set: MTT cytotoxicity assay, HT-29. It is filed as cell-based, human. To be noted: HT-29, 72 h. The protocol:
as §2, §1

The subject of data set [4] is A-549 cells. Description: MTT cytotoxicity assay, A-549. Type of data set: cell-based, human. To be noted: A-549, 72 h. On the procedure: as §2, §1
Data set [5] has as its system HeLa cells. Nature of the data set: MTT cytotoxicity assay, HeLa. Type of data set: cell-based, human. As to conditions: 72 h. On the procedure: as §2, §1
Data set [6] concerns mouse embryonic fibroblast NIH/3 T3 cells. Description: MTT cytotoxicity assay, NIH/3T3. It is filed as cell-based. To be noted: 3T3, 72 h. On the procedure:
as §2, §1

In data set [7] the test system is MCF-10A normal breast epithelial cells. Nature of the data set: MTT cytotoxicity assay, MCF10A. It is filed as cell-based, human. As to conditions: 72 h. The protocol:
as §2, §1

Data set [8] relates to MDA-MB-231 cells. Nature of the data set: Morphological changes under inverted light microscope. It is filed as cell-based, human. The protocol:
Briefly, 150,000 cells per well of MDA-MB-231 cells were seeded in a 6-well plate and incubated for 24 h. Next, the cells were treated with ampelopsin E (7.5–30 μM) and further incubated for 72 h. The untreated cells were included as a control. The image was captured at 0, 24, 48 and 72 h at the same spot under an inverted microscope (Olympus, Japan).

The test system of data set [9] is MDA-MB-231 cells. Nature of the data set: Cell cycle analysis by flow cytometer. To be noted: 15 and 30 μM; 24, 48 and 72 h; p < 0.05. It is filed as cell-based, human. The protocol: MDA-MB-231 cells were seeded at 800,000 cells per 75 cm^2 flask. Next, the cells were treated with ampelopsin E (7.5–30 μM). The untreated cells were also included as a control. The cells were incubated for 24, 48 and 72 h. Next, the cells were trypsinized, washed twice with ice cold PBS and collected. The cell pellet was fixed with ice-cold 70 % ethanol and stored at −20 °C. After a week, the cells were washed once again with ice-cold PBS. The cell pellet was mixed up with 250 μL Guava cell cycle reagents (EMD, Milliport Corporation, Hayward) and 300 μL PBS. The population of cells in each phase was measured by a flow cytometer (FACSCalibur, Becton Dickinson, USA). The results were analysed by using ModFit LT™ software.
On the technique in general: Flow cytometry measures light scatter and fluorescence of single cells or particles in a stream.

The test system of data set [10] is MDA-MB-231 cells. Nature of the data set: Annexin V/PI flow cytometric analysis of mode of cell death. It is filed as cell-based, human. To be noted: for percentage of viable cells, lower left quadrant (Annexin-V-/PI-): 24 h; for percentage of early apoptotic cells, lower right quadrant (Annexin-V+/PI-): 72 h. On the procedure: Human Annexin V/PI Apoptosis Detection Kit I (BD Biosciences Pharmingen, Franklin Lakes, NJ, USA) was used to determine the mode of cell death induced by ampelopsin E. Briefly, the MDA-MB-231 cells were seeded at 150,000 cells per well in a 6-well plate. Next, the cells were treated with ampelopsin E (7.5–30 μM). The untreated cells were also included as a control. The cells were harvested and washed with 2 mL of ice-cold PBS. Subsequently, the samples were mixed with 100 μL of […] binding buffer on ice. Next, in the dark, 5 μL annexin V and 5 μL of propidium iodide (1 mg/mL) were added with 15 min of incubation on ice. Next, 400 μL of […] binding buffer was added to dilute the samples. The cells were analyzed by using FACS Calibur flow cytometer (Becton Dickinson, USA). The results were analysed by using FlowJo version 8.6 (Treestar Inc., San Carlos, CA).

The test system of data set [11] is MCF-7 cells. More on the design: method as in Wibowo et al. [34]. To be noted: MCF-7, ampelopsin E from Dryobalanops beccarii; ref Wibowo et al. [34]; cited from earlier work.

Read-outs that look alike come from different tables or passages of the source.

Broadly, the IC50 is the concentration that inhibits the measured activity by half. As to nepalensinol E, the 50% inhibitory concentration (IC50) in [1] (MDA-MB-231, 72 h) is greater than 30 µM; in data set [2] (MCF-7, 72 h), greater than 30 µM; in [3], greater than 30 µM; in data set [4], greater than 30 µM; in data set [5], greater than 30 µM; in data set [6], greater than 30 µM.

As to ampelopsin E, the cell viability result in [1] (15–30 μM, p < 0.05) is given as “significant reduction”. Moreover, the half-maximal inhibitory concentration (IC50) in data set [1] (MDA-MB-231, 24 h) is 30 ± 0.13 µM; in data set [1] (MDA-MB-231, 48 h), 16 ± 2.01 µM; in data set [1] (MDA-MB-231, 72 h), 14.5 ± 0.71 µM; in data set [1] (MDA-MB-231, 72 h, listed as ampelopsin E), less than 15 µM; in [2] (MCF-7, 72 h) it was 29.5 ± 0.71 µM; in [3], greater than 30 µM. Also, the IC50 was greater than 30 µM in data set [4]; greater than 30 µM in data set [5]; greater than 30 µM in data set [6]; greater than 30 µM in data set [7]; 21 µM in [11]. The morphological changes entry was “membrane blebbing” in [8] (7.5 μM); “cell shrinkage” in [8] (15 μM); “Cell detachment, cell shrinkage and formation apoptotic bodies” in [8] (30 μM, 48 and 72 h). The cell cycle arrest entry in data set [9] is listed as “increase in G2/M population”. Moreover, the “percentage of viable cells, lower left quadrant (Annexin-V-/PI-)” value in [10] (7.5 μM) is given as 75.3%; in data set [10] (15 μM), 69.0%; in data set [10] (30 μM), 57.1%. Also, the “percentage of early apoptotic cells, lower right quadrant (Annexin-V+/PI-)” value in [10] (7.5 μM) is given as 12.9%; in [10] (15 μM), 23.6%; in data set [10] (30 μM), 33.9%. Further, in data set [10] (7.5-30 μM), the “mode of cell death” value is recorded as “induced apoptosis”.

For the compound `COc1cccc2c1C(=O)c1c(O)c3c(c(O)c1C2=O)C[C@@](O)(C(=O)CO)C[C@@H]3O[C@H]1C[C@H](N)[C@H](O)[C@H](C)O1` [Doxorubicin, reference compound], the 50% inhibitory concentration (IC50) is 0.4 µM in data set [1] (Homo sapiens, MDA-MB-231, 72 h); 0.21 ± 0.27 µM in data set [2] (Homo sapiens, MCF7, MCF-7, 72 h); greater than 10 µM in data set [7] (Homo sapiens, MCF-10A).

As to `O=C1O[C@@H]2[C@H](O)COC23O[C@@H](c2ccc(O)cc2)[C@H](c2cc(O)cc4c2[C@@H](c2cc(O)cc(O)c2)[C@H](c2ccc(O)cc2)O4)[C@@]13O` (stereo partly drawn) [Laevifonol, laevifonol], the IC50 in data set [1] (MDA-MB-231, 72 h) is greater than 30 µM; in data set [2] (MCF-7, 72 h), greater than 30 µM; in data set [3] it was greater than 30 µM; in [4], greater than 30 µM; in data set [5], greater than 30 µM; in [6], greater than 30 µM.

In the case of `Oc1ccc(/C=C\c2c3c(cc4c2[C@@H](c2cc(O)cc(O)c2)[C@@H](c2ccc(O)cc2)O4)O[C@H](c2ccc(O)cc2)[C@@H]3c2cc(O)cc(O)c2)cc1` [Malaysianol D], the IC50 in data set [1] (MDA-MB-231, 72 h) is greater than 30 µM; in data set [2] (MCF-7, 72 h) it was greater than 30 µM; in data set [7], greater than 30 µM.

Consider `Oc1ccc([C@@H]2c3c(O)cc(O)cc3[C@@H]3c4c(O)cc(O)cc4[C@H]2[C@H]3c2ccc(O)cc2)cc1` [Ampelopsin F, ampelopsin F], for which the half-maximal inhibitory concentration (IC50) was greater than 30 µM in data set [1] (MDA-MB-231, 72 h); greater than 30 µM in data set [2] (MCF-7, 72 h); greater than 30 µM in [3]; greater than 30 µM in data set [4]; greater than 30 µM in data set [5]; greater than 30 µM in data set [6].

Take `Oc1ccc(/C=C/c2c3c(cc4c2[C@@H](c2cc(O)cc(O)c2)[C@H](c2ccc(O)cc2)O4)O[C@H](c2ccc(O)cc2)[C@H]3c2cc(O)cc3c2[C@@H](c2cc(O)cc(O)c2)[C@H](c2ccc(O)cc2)O3)cc1` [Flexuosol A, flexuosol A]: the IC50 in data set [1] (MDA-MB-231, 72 h) is 27.5 ± 3.54 µM; in data set [2] (MCF-7, 72 h), greater than 30 µM; in [3] it was greater than 30 µM; in [4], greater than 30 µM; in [5], greater than 30 µM; in data set [6], greater than 30 µM. Moreover, in data set [7], the IC50 is greater than 30 µM.

As to Malaysianol A, the IC50 in [1] (MDA-MB-231, 72 h) was 23 ± 4.24 µM; in [2] (MCF-7, 72 h) it was greater than 30 µM; in data set [7], greater than 30 µM.
